Molecular target: human KOR (Homo sapiens, UniProt P41145)
Assay: not given
Conditions: from binding affinities

human KOR, sequence (P41145 whole entry): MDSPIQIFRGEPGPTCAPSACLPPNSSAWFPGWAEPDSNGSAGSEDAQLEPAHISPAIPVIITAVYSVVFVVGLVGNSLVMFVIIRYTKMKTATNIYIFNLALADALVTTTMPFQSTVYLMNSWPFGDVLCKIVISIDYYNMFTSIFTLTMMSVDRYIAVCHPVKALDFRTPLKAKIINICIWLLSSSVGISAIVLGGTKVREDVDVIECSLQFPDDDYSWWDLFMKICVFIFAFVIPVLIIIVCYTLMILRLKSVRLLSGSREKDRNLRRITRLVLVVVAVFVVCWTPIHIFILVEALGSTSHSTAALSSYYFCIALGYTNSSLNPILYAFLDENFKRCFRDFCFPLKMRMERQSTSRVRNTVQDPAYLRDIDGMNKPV

Compound | selectivity KOR over the DORs
Oc1cccc(CNc2ccc3c(c2)C[C@@H]2[C@@H]4CCCC[C@]34CCN2CC2CC2)c1 [Compound 17, 2-(3′-Hydroxybenzyl)amino-17-cyclopropylmethylmorphinan] | > 10,000 fold

Molecular target: T1, human MOR (Homo sapiens, UniProt P35372)
Assay: not given
Conditions: Table 1; ratio of Ki values; cited from earlier work

T1 sequence (P35372 whole entry): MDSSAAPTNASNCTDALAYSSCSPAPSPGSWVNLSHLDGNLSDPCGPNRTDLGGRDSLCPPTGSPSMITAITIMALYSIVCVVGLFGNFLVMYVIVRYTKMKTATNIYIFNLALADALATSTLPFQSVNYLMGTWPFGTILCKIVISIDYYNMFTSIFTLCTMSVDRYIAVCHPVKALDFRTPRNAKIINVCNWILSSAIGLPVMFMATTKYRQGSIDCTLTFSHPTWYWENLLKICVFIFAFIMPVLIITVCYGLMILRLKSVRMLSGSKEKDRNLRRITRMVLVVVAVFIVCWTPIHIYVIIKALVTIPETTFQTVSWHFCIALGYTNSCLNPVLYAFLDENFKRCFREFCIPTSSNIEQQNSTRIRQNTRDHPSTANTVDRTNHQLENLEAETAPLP

Compound | Selectivity MOR/KOR/DOR
CN1CC[C@]23CCCC[C@H]2[C@H]1Cc1ccc(N)cc13 [Compound 2a] | 1/14/190
Nc1ccc2c(c1)[C@@]13CCCC[C@H]1[C@@H](C2)N(CC1CCC1)CC3 [Compound 2b] | 2/1/100
c1ccc(CNc2ccc3c(c2)[C@@]24CCCC[C@H]2[C@@H](C3)N(CC2CC2)CC4)cc1 [Compound 8a, reference compound] | 1/1/112
c1ccc(CNc2ccc3c(c2)[C@@]24CCCC[C@H]2[C@@H](C3)N(CC2CCC2)CC4)cc1 [Compound 8d, reference compound] | 1/2/76

Molecular target: human μ opioid receptor (Homo sapiens, UniProt P35372)
Sequence (P35372 whole entry): as above
Assay: [35S]GTPγS binding mediated by the mu opioid receptor
Type: biochemical
Conditions: [35S]GTPγS binding assay, in words

Compound | functional activity at MOR (agonist character)
CN1CC[C@]23CCCC[C@H]2[C@H]1Cc1ccc(NCc2cccc(O)c2)cc13 [Compound 4g] | full agonist
CN1CC[C@]23c4c5ccc(NCc6cccc(O)c6)c4O[C@H]2[C@@H](O)C=C[C@H]3[C@H]1C5 [Compound 12b, 3-(3′-hydroxybenzyl)amino-7,8-didehydro-4,5-epoxy-17-methyl-(5α,6α)-morphinan-6-ol] | full agonists

Molecular target: T1, human MOR
Assay: not given
Type: binding
Conditions: not given

Compound | Selectivity MOR/KOR/DOR
Nc1ccc2c(c1)[C@@]13CCCC[C@H]1[C@@H](C2)N(CC1CC1)CC3 [Compound 2c] | 7/1/830
COc1ccccc1CNc1ccc2c(c1)[C@@]13CCCC[C@H]1[C@@H](C2)N(CC1CCC1)CC3 [Compound 3a, (−)-17-(cyclobutylmethyl)-N-(2-methoxybenzyl)-morphinan-3-amine] | 1/1/28
COc1cccc(CNc2ccc3c(c2)[C@@]24CCCC[C@H]2[C@@H](C3)N(CC2CCC2)CC4)c1 [Compound 3b, (−)-17-(cyclobutylmethyl)-N-(3-methoxybenzyl)-morphinan-3-amine] | 1/5/220
Clc1ccc(CNc2ccc3c(c2)[C@@]24CCCC[C@H]2[C@@H](C3)N(CC2CCC2)CC4)cc1 [Compound 3d, (−)-17-(cyclobutylmethyl)-N-(4-chlorobenzyl)-morphinan-3-amine] | 1/3/59
COc1ccccc1CNc1ccc2c(c1)[C@@]13CCCC[C@H]1[C@@H](C2)N(CC1CC1)CC3 [Compound 3f, (−)-17-(cyclopropylmethyl)-N-(2-methoxybenzyl)-morphinan-3-amine] | 1/1/130
COc1cccc(CNc2ccc3c(c2)[C@@]24CCCC[C@H]2[C@@H](C3)N(CC2CC2)CC4)c1 [Compound 3g, (−)-17-(cyclopropylmethyl)-N-(3-methoxybenzyl)-morphinan-3-amine] | 1/3/220
Oc1ccccc1CNc1ccc2c(c1)[C@@]13CCCC[C@H]1[C@@H](C2)N(CC1CCC1)CC3 [Compound 4a, (−)-17-(cyclobutylmethyl)-N-(2-hydroxybenzyl)-morphinan-3-amine] | 1/1/65
Oc1cccc(CNc2ccc3c(c2)[C@@]24CCCC[C@H]2[C@@H](C3)N(CC2CCC2)CC4)c1 [Compound 4b, (−)-17-(cyclobutylmethyl)-N-(3-hydroxybenzyl)-morphinan-3-amine] | 1/6/720
Oc1ccccc1CNc1ccc2c(c1)[C@@]13CCCC[C@H]1[C@@H](C2)N(CC1CC1)CC3 [Compound 4d, (−)-17-(cyclopropylmethyl)-N-(2-hydroxybenzyl)morphinan-3-amine] | 10/1/150
COc1ccccc1CN(C)c1ccc2c(c1)[C@@]13CCCC[C@H]1[C@@H](C2)N(CC1CCC1)CC3 [Compound 5a, (−)-17-(cyclobutylmethyl)-N-methyl-N-(2-methoxybenzyl)-morphinan-3-amine] | 1/1/14
COc1cccc(CN(C)c2ccc3c(c2)[C@@]24CCCC[C@H]2[C@@H](C3)N(CC2CCC2)CC4)c1 [Compound 5b] | 1/2/27

Same assay, conditions: Table 1; ratio of Ki values

Compound | Selectivity MOR/KOR/DOR
COc1ccc(CNc2ccc3c(c2)[C@@]24CCCC[C@H]2[C@@H](C3)N(CC2CCC2)CC4)cc1 [Compound 3c, (−)-17-(cyclobutylmethyl)-N-(4-methoxybenzyl)-morphinan-3-amine] | 1/5/300
c1cc2c(cc1CNc1ccc3c(c1)[C@@]14CCCC[C@H]1[C@@H](C3)N(CC1CCC1)CC4)OCO2 [Compound 3e, (−)-17-(cyclobutylmethyl)-N-(3,4-methylenedioxybenzyl)morphinan-3-amine] | 1/3/160
COc1ccc(CNc2ccc3c(c2)[C@@]24CCCC[C@H]2[C@@H](C3)N(CC2CC2)CC4)cc1 [Compound 3h, (−)-17-(cyclopropylmethyl)-N-(4-methoxybenzyl)-morphinan-3-amine] | 1/2/65
c1cc2c(cc1CNc1ccc3c(c1)[C@@]14CCCC[C@H]1[C@@H](C3)N(CC1CC1)CC4)OCO2 [Compound 3i, (−)-17-(cyclopropylmethyl)-N-(3,4-methylenedihydroxybenzyl)-morphinan-3-amine] | 1/3/120
O=[N+]([O-])c1cccc(CNc2ccc3c(c2)[C@@]24CCCC[C@H]2[C@@H](C3)N(CC2CCC2)CC4)c1 [Compound 3k, (−)-3-(3′-nitrobenzyl)amino-17-cyclobutylmethylmorphinan] | 1/3/350
Oc1ccc(CNc2ccc3c(c2)[C@@]24CCCC[C@H]2[C@@H](C3)N(CC2CCC2)CC4)cc1 [Compound 4c, (−)-17-(cyclobutylmethyl)-N-(4-hydroxybenzyl)morphinan-3-amine] | 1/7/340
Oc1cccc(CNc2ccc3c(c2)[C@@]24CCCC[C@H]2[C@@H](C3)N(CC2CC2)CC4)c1 [Compound 4e, (−)-17-(cyclopropylmethyl)-N-(3-hydroxybenzyl)-morphinan-3-amine] | 1/2/260
Oc1ccc(CNc2ccc3c(c2)[C@@]24CCCC[C@H]2[C@@H](C3)N(CC2CC2)CC4)cc1 [Compound 4f, (−)-17-(cyclopropylmethyl)-N-(4-hydroxybenzyl)-morphinan-3-amine] | 1/1/44
CN1CC[C@]23CCCC[C@H]2[C@H]1Cc1ccc(NCc2cccc(O)c2)cc13 [Compound 4g] | 1/24/1700
COc1ccc(CN(C)c2ccc3c(c2)[C@@]24CCCC[C@H]2[C@@H](C3)N(CC2CCC2)CC4)cc1 [Compound 5c, (−)-17-(cyclobutylmethyl)-N-methyl-N-(4-methyloxybenzyl)-morphinan-3-amine] | 1/1/34
CN(Cc1ccc(Cl)cc1)c1ccc2c(c1)[C@@]13CCCC[C@H]1[C@@H](C2)N(CC1CCC1)CC3 [Compound 5d, (−)-17-(cyclobutylmethyl)-N-methyl-N-(4-chlorobenzyl)-morphinan-3-amine] | 1/1/28
CN(Cc1cccc(O)c1)c1ccc2c(c1)[C@@]13CCCC[C@H]1[C@@H](C2)N(CC1CCC1)CC3 [Compound 6b] | 1/1/10
CN(Cc1ccc(O)cc1)c1ccc2c(c1)[C@@]13CCCC[C@H]1[C@@H](C2)N(CC1CCC1)CC3 [Compound 6c, (−)-17-(cyclobutylmethyl)-N-methyl-N-(4-hydroxybenzyl)-morphinan-3-amine] | 1/1/170

Same assay, conditions: from binding affinities

Compound | selectivity MOR to DOR [fold]
CN1CC[C@]23CCCC[C@H]2[C@H]1Cc1ccc(NCc2cccc(O)c2)cc13 [Compound 4g] | ~2000
